IC50 data for nine molecules are collected here from patent US8901118B2, “Compounds and methods for kinase modulation, and indications therefor” (Plexxikon Inc., priority 2010, dated 2014).

The target of one experiment is Fms kinase (Homo sapiens, UniProt P07333). As to the kind of experiment: Fms kinase biochemical activity assay (AlphaScreen, biotin-(E4Y)10 phosphorylation). To be noted: 100 μM ATP; read-out: Biochemical Inhibition IC50 Fms. The essentials:
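AlphaScreen read-out (PY20 acceptor, streptavidin donor beads, EDTA stop) of biotin-(E4Y)10 phosphorylation, with IC50 taken from the concentration–signal curve. Reaction: 30 nM substrate, 100 μM ATP, 1 ng/well Fms, Hepes pH 7.5 with Mg2+/Mn2+, 5% DMSO, 20 min at 30 °C.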

The next experiment deals with T1, BCR-FMS BaF3 cells (Homo sapiens, UniProt P07333).
T1 construct: fused on or other part: P11274 (Breakpoint cluster region protein)
T1 sequence (P07333 582-910): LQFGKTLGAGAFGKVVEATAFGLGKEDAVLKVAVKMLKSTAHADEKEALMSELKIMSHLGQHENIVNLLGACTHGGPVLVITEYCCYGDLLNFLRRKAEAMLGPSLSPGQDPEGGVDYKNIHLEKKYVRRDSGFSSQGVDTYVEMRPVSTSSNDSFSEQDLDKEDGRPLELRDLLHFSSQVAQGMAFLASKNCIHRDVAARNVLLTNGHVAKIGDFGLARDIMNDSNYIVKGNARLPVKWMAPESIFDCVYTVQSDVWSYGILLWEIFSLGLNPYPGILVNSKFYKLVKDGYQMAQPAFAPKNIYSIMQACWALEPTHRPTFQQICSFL
Nature of the experiment: BaF3 BCR-FMS cell proliferation assay (ATPlite). In kind it is cell-based. To be noted: read-out: Inhibition of Cell Proliferation IC50, BCR/BaF3 Fms. The essentials:
(§1)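 Cells are plated overnight: BaF3 at 10,000/well in G418 medium without WEHI/IL-3, MV-4-11 at 25,000/well in IMDM with 10% FBS. An 8-point 1:3 compound titration (10 μM top) is then added, and plates are incubated 3 days at 37 °C before ATPlite readout and IC50 determination.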
A general note: In ATP-based viability assays light output follows the ATP content of the culture.

Another experiment concerns the target T2, BCR-NTRK3 BaF3 cells (Homo sapiens, UniProt Q16288).
T2 construct: fused on or other part: P11274 (Breakpoint cluster region protein)
As to the kind of experiment: BaF3 BCR-NTRK3 cell proliferation assay (ATPlite). Type of experiment: cell-based. To be noted: read-out: Inhibition of Cell Proliferation IC50, BCR/BaF3 TrkC. The essentials: as §1

pIC50: −log10 of the molar value.

Chain of Fms kinase (P07333 20-972): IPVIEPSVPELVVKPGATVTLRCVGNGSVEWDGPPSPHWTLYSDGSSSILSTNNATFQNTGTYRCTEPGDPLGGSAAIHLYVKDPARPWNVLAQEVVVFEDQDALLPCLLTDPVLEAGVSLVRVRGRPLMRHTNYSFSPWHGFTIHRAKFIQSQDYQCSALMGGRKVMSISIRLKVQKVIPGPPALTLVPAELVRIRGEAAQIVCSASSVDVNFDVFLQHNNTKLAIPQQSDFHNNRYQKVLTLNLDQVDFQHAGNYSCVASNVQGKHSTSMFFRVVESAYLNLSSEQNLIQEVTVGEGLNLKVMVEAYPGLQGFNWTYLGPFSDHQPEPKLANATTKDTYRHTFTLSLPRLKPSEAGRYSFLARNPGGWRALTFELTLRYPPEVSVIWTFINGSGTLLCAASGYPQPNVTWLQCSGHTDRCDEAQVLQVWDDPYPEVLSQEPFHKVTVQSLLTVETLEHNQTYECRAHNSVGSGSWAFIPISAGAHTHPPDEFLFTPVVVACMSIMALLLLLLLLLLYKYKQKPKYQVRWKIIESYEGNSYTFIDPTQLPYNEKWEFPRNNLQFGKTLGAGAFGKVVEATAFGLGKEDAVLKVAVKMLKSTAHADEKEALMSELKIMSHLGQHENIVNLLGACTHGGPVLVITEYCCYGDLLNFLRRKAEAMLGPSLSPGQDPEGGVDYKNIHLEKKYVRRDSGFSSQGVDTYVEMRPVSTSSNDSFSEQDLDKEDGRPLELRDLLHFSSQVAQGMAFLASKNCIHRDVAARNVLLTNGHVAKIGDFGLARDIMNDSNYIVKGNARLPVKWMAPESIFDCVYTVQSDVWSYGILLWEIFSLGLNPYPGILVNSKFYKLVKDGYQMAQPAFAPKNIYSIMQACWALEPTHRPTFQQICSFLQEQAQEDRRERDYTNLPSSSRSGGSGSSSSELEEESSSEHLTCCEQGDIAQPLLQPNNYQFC
T2 sequence (Q16288 whole entry, the tested form may be a part): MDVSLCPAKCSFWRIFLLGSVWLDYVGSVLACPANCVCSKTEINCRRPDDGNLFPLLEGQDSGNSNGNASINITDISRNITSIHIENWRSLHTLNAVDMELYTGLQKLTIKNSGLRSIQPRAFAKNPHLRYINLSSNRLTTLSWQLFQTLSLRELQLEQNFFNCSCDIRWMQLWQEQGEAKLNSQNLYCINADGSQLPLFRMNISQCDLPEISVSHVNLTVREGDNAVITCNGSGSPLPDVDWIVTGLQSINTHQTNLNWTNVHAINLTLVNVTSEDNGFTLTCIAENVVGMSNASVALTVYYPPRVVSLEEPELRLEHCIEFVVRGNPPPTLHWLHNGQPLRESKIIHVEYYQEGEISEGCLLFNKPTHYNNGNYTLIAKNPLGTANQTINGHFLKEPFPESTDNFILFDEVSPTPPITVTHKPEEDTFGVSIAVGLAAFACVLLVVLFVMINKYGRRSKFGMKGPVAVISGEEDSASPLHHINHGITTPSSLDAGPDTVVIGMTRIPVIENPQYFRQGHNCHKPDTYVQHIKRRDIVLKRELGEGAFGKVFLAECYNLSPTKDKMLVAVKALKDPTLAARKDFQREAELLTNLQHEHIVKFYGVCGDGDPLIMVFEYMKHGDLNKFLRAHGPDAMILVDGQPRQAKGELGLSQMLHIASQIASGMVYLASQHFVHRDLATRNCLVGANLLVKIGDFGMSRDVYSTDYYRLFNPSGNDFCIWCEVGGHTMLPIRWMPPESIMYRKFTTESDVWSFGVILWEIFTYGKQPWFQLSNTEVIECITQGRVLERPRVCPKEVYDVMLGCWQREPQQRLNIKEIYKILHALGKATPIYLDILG

With `CCc1ccc(Nc2ccc(C(=O)c3c[nH]c4ncnc(NCCOC)c34)c(F)n2)cn1` [Compound P-4119, [6-[(6-ethyl-3-pyridyl)amino]-2-fluoro-3-pyridyl]-[4-(2-methoxyethylamino)-7H-pyrrolo[2,3-d]pyrimidin-5-yl]methanone], the pIC50 on Fms kinase, at BCR-FMS BaF3 cells and at BCR-NTRK3 BaF3 cells was greater than 8.00 each time.
In the case of `CCc1ccc(Nc2ccc(C(=O)c3c[nH]c4ncnc(NCC(F)(F)F)c34)c(F)n2)cn1` [Compound P-4120, [6-[(6-ethyl-3-pyridyl)amino]-2-fluoro-3-pyridyl]-[4-(2,2,2-trifluoroethylamino)-7H-pyrrolo[2,3-d]pyrimidin-5-yl]methanone], the pIC50 is greater than 7.00 at Fms kinase, greater than 7.00 on BCR-FMS BaF3 cells and greater than 8.00 at BCR-NTRK3 BaF3 cells.
Consider `CCc1ccc(Nc2ccc(C(=O)c3c[nH]c4ncnc(NCC(C)C)c34)c(F)n2)cn1` [Compound P-4121, [6-[(6-ethyl-3-pyridyl)amino]-2-fluoro-3-pyridyl]-[4-(isobutylamino)-7H-pyrrolo[2,3-d]pyrimidin-5-yl]methanone], for which the pIC50 at Fms kinase is greater than 7.00; at BCR-FMS BaF3 cells, greater than 8.00; at BCR-NTRK3 BaF3 cells, greater than 8.00.
On to `CCCNc1ncnc2[nH]cc(C(=O)c3ccc(Nc4ccc(CC)nc4)nc3F)c12` [Compound P-4122, [6-[(6-ethyl-3-pyridyl)amino]-2-fluoro-3-pyridyl]-[4-(propylamino)-7H-pyrrolo[2,3-d]pyrimidin-5-yl]methanone], for which the pIC50 on Fms kinase, on BCR-FMS BaF3 cells and at BCR-NTRK3 BaF3 cells was greater than 8.00 in each case.
For the molecule `CCNc1ncnc2[nH]cc(C(=O)c3ccc(Nc4ccc(CC)nc4)nc3F)c12` [Compound P-4123, [4-(ethylamino)-7H-pyrrolo[2,3-d]pyrimidin-5-yl]-[6-[(6-ethyl-3-pyridyl)amino]-2-fluoro-3-pyridyl]methanone], the pIC50 on Fms kinase, at BCR-FMS BaF3 cells and at BCR-NTRK3 BaF3 cells was greater than 8.00 throughout.
As for `CCc1ccc(Nc2ccc(C(=O)c3c[nH]c4ncnc(NC)c34)c(F)n2)cn1` [Compound P-4124, [6-[(6-ethyl-3-pyridyl)amino]-2-fluoro-3-pyridyl]-[4-(methylamino)-7H-pyrrolo[2,3-d]pyrimidin-5-yl]methanone], the pIC50 on Fms kinase, at BCR-FMS BaF3 cells and at BCR-NTRK3 BaF3 cells was greater than 8.00 each time.
Take `CCc1ccc(Nc2ccc(C(=O)c3c[nH]c4ncnc(NC5CC5)c34)c(F)n2)cn1` [Compound P-4125, [4-(cyclopropylamino)-7H-pyrrolo[2,3-d]pyrimidin-5-yl]-[6-[(6-ethyl-3-pyridyl)amino]-2-fluoro-3-pyridyl]methanone]: the values for the pIC50 at Fms kinase, on BCR-FMS BaF3 cells and on BCR-NTRK3 BaF3 cells were greater than 7.00, greater than 8.00 and greater than 8.00, respectively.
As to `COc1ccc(Nc2ccc(C(=O)c3c[nH]c4ncnc(NC5CC5)c34)c(F)n2)cn1` [Compound P-4126, [4-(cyclopropylamino)-7H-pyrrolo[2,3-d]pyrimidin-5-yl]-[2-fluoro-6-[(6-methoxy-3-pyridyl)amino]-3-pyridyl]methanone], the pIC50 at Fms kinase, on BCR-FMS BaF3 cells and at BCR-NTRK3 BaF3 cells was greater than 8.00 throughout.
Turning to `Fc1cc(Cc2c[nH]c3ncnc(NC4CC4)c23)cnc1NC1CCC(F)(F)CC1` [Compound P-4127, N-cyclopropyl-5-[[6-[(4,4-difluorocyclohexyl)amino]-5-fluoro-3-pyridyl]methyl]-7H-pyrrolo[2,3-d]pyrimidin-4-amine], the figures for the pIC50 at Fms kinase, at BCR-FMS BaF3 cells and at BCR-NTRK3 BaF3 cells were greater than 7.00, greater than 8.00 and greater than 7.00, respectively.
